Reference: patent US6849602B1 (The Regents of the University of California, priority 1996, dated 2005)
“Also recorded” adds a separate entry of the source. No end group written: not given here.

Columns and labels:
Chung model rats = assay: Tactile allodynia (von Frey, 50% paw withdrawal threshold) after bolus intrathecal injection in Chung model rats; assay type: in vivo, rat; details: for activity in alleviating neuropathic pain as assayed using Chung rats: summary statement
Description: Each of the three peptides were obtained in pure form by chemical synthesis, dissolved in sterile PBS and buffered to a neutral pH.
The surgical procedure previously described by Kim and Chung, supra (1992) was performed on male Sprague-Dawley rats weighing 120 to 150 grams to induce an allodynic state. Briefly, the rats were anesthetized with halothane; subsequently, the left L-5 and L-6 spinal nerves were isolated adjacent to the vertebral column and ligated with 6.0 silk suture distal to the dorsal root ganglion.
After a ten to fourteen day post operative recovery period, a spinal catheter was introduced. Five days following the second surgery, intrathecal drug administration was accomplished using a gear driven micro-injection syringe connected to a spinal catheter inserted through the foramen magnum. Prior to testing, the rats were placed in clear plastic wire meshed cages and allowed to acclimate.
To assess the 50% mechanical threshold for paw withdrawal, a von Frey hair was applied to the hind foot avoiding the foot pad. Each of the von Frey hairs, which are calibrated to bend at increasing log forces, were pressed perpendicularly to the foot with sufficient force to cause slight bending for a duration of approximately six to eight seconds. A positive response was noted if the foot was sharply withdrawn. Six data points were collected for each point with the maximum and minimum stimulus noted for each time point. The resulting pattern of the responses was tabulated, and the 50% response threshold was computed. The graph gives the response to the indicated dosage of peptide given as a single intrathecal bolus injection. The X-axis indicates the time after the injection at which point the hypersensitivity to pressure on the foot pad was measured.

neuroblastoma cells [1] = assay: Neurotrophic activity (neurite outgrowth, choline acetyltransferase, cell death); assay type: cell-based
[2] = tested on: normal male Sprague Dawley rats; assay: Hot plate response latency in normal rats after intrathecal injection; assay type: in vivo, rat; details: hot plate 52.5° C., up to 180 minutes after intrathecal injection
Description: Briefly, the period of time before the rat withdraws the affected foot from a source of heat is defined as the hot plate latency and is a measure of tolerance to pain caused by a heat stimulus.
An intrathecal catheter was placed into normal male Sprague Dawley rats. […] Rats were examined on the hot plate (52.5° C.); hot plate response latencies were measured prior to injection and at various time points up to 180 minutes after the injection.

taxol-treated mice = assay: Loss of thermal sensation (Hargreaves) in taxol-treated mice; assay type: in vivo, mouse
Description: Mice were administered taxol in order to induce sensory neuropathy.
The loss of thermal sensation was measured using a Hargreaves sensory testing apparatus as an indicator of sensory neuropathy.

neuroblastoma cells [3] = details: O'Brien et al.; cited from earlier work

Sequence: CEFLVKEVTKLIDDNKTEKEIL [SEQ ID NO:8]
- allodynic response (Chung model rats; injection of 17.5 μg): No change in the allodynic response
- activity in alleviating neuropathic pain as assayed using Chung rats (Chung model rats): inactive in alleviating neuropathic pain
- activity in alleviating neuropathic pain as assayed using Chung rats (Chung model rats; listed as SEQ ID NO8): lacks activity in alleviating neuropathic pain
- neurotrophic activity (neuroblastoma cells [1]): lacks neurotrophic activity

Sequence: CEFLVKEVTKLIDNNKTEKEIL [SEQ ID NO:1]
- duration of effect following administration (Chung model rats; FIG. 1): 3 h
- latest time point with significantly reduced allodynia (Chung model rats; highest dose, intrathecal): ≥ 180 min
- time after injection to significant effect (Chung model rats; intrathecal bolus): ≤ 15 min
- time of maximum (peak) effect post-injection (Chung model rats; intrathecal bolus): 120 min
- tactile allodynia (force threshold) (Chung model rats; intrathecal injection of 0.007 μg): no significant reduction in allodynia
- tactile allodynia (force threshold) (Chung model rats; intrathecal injection of 0.7 or 0.07 μg): suppressed allodynia in a dose-dependent fashion
- activity in alleviating neuropathic pain as assayed using Chung rats (Chung model rats): reduces the painful allodynia; also recorded: alleviate neuropathic pain
- hot plate response latency [2]: No significant elevation of the hot plate response latency
- loss of thermal sensation (taxol-treated mice; 100 μg/kg): the loss of thermal sensation was inhibited
- loss of thermal sensation (taxol-treated mice; similarly assayed, dose not stated): effective in inhibiting less of thermal sensation
- neurotrophic activity (neuroblastoma cells [1]): have neurotrophic activity
- cell death in neuroblastoma cells (neuroblastoma cells [3]): prevents cell death in neuroblastoma cells
- choline acetyltransferase activity (neuroblastoma cells [3]): stimulates
- neurite outgrowth (neuroblastoma cells [3]): stimulates neurite outgrowth

Sequence: LIDNNKTEKEIL [SEQ ID NO:3]
- neurotrophic activity (neuroblastoma cells [1]): active as a neurotrophic factor

Sequence: TKLIDNDKTEKEIL [SEQ ID NO:9, substitution of the second conserved asparagine residue]
- neurotrophic activity (neuroblastoma cells [1]): lacks neurotrophic activity

Sequence: TKSIDNNKTEKEIL [SEQ ID NO:10, substitution of the conserved leucine residue]
- neurotrophic activity (neuroblastoma cells [1]): lacks neurotrophic activity
